According to ChEMBL document CHEMBL1201862, “PubChem BioAssay data set” (2004):
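Cells were grown in 96-well plates and exposed to each compound for 48 hours at five concentrations; endpoints were interpolated linearly between bracketing concentrations, or set to the highest concentration if not reached. Abbreviation: GI50, concentration required for 50% inhibition of growth.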 Activity calls are given as the source filed them. Cut-off read from the data, not from the text of the source: active = GI50 up to about 1.1 µM and inactive = higher.

Tests used:
Assay in all cases: growth of human tumour cells (NCI), 48 h
786-0 = system: 786-0
A498 = system: A498
A549 = system: A549
ACHN = system: ACHN
BT-549 = system: BT-549
CAKI-1 = system: CAKI-1
CCRF-CEM = system: CCRF-CEM
COLO 205 = system: COLO 205
DU-145 = system: DU-145
EKVX = system: EKVX
HCC 2998 = system: HCC 2998
HCT-116 = system: HCT-116
HCT-15 = system: HCT-15
HL-60 = system: HL-60
HOP-62 = system: HOP-62
HOP-92 = system: HOP-92
HT-29 = system: HT-29
Hs-578T = system: Hs-578T
IGROV-1 = system: IGROV-1
K562 = system: K562
KM12 = system: KM12
LOX IMVI = system: LOX IMVI
M14 = system: M14
MCF7 = system: MCF7
MDA-MB-231 = system: MDA-MB-231
MDA-MB-435 = system: MDA-MB-435
MDA-N = system: MDA-N
MOLT-4 = system: MOLT-4
Malme-3M = system: Malme-3M
NCI-H226 = system: NCI-H226
NCI-H23 = system: NCI-H23
NCI-H460 = system: NCI-H460
NCI-H522 = system: NCI-H522
NCI/ADR-RES = system: NCI/ADR-RES
OVCAR-3 = system: OVCAR-3
OVCAR-5 = system: OVCAR-5
OVCAR-8 = system: OVCAR-8
PC-3 = system: PC-3
RPMI-8226 = system: RPMI-8226
RXF 393 = system: RXF 393
SF-268 = system: SF-268
SF-295 = system: SF-295
SF-539 = system: SF-539
SK-MEL-28 = system: SK-MEL-28
SK-MEL-2 = system: SK-MEL-2
SK-MEL-5 = system: SK-MEL-5
SK-OV-3 = system: SK-OV-3
SN12C = system: SN12C
SNB-19 = system: SNB-19
SNB-75 = system: SNB-75
SR = system: SR
SW-620 = system: SW-620
T47D = system: T47D
TK-10 = system: TK-10
U-251 = system: U-251
UACC-257 = system: UACC-257
UACC-62 = system: UACC-62
UO-31 = system: UO-31
OVCAR-4 = system: OVCAR-4

CCOC(=O)NC(Nc1cccc(C(F)(F)F)c1)(C(F)(F)F)C(F)(F)F
GI50 (786-0): > 100 µM (inactive)
GI50 (A498): > 100 µM (inactive)
GI50 (A549): > 100 µM (inactive)
GI50 (ACHN): > 100 µM (inactive)
GI50 (BT-549): > 100 µM (inactive)
GI50 (CAKI-1): > 100 µM (inactive)
GI50 (CCRF-CEM): > 100 µM (inactive)
GI50 (COLO 205): > 100 µM (inactive)
GI50 (DU-145): > 100 µM (inactive)
GI50 (EKVX): > 100 µM (inactive)
GI50 (HCC 2998): > 100 µM (inactive)
GI50 (HCT-116): > 100 µM (inactive)
GI50 (HCT-15): > 100 µM
GI50 (HL-60): > 100 µM (inactive)
GI50 (HOP-62): > 100 µM (inactive)
GI50 (HOP-92): > 100 µM (inactive)
GI50 (HT-29): > 100 µM (inactive)
GI50 (Hs-578T): > 100 µM (inactive)
GI50 (IGROV-1): > 100 µM (inactive)
GI50 (K562): > 100 µM (inactive)
GI50 (KM12): > 100 µM (inactive)
GI50 (LOX IMVI): > 100 µM (inactive)
GI50 (M14): > 100 µM (inactive)
GI50 (MCF7): > 100 µM (inactive)
GI50 (MDA-MB-231): > 100 µM (inactive)
GI50 (MDA-MB-435): > 100 µM (inactive)
GI50 (MDA-N): > 100 µM (inactive)
GI50 (MOLT-4): > 100 µM (inactive)
GI50 (Malme-3M): > 100 µM (inactive)
GI50 (NCI-H226): > 100 µM (inactive)
GI50 (NCI-H23): > 100 µM (inactive)
GI50 (NCI-H460): > 100 µM (inactive)
GI50 (NCI-H522): > 100 µM (inactive)
GI50 (NCI/ADR-RES): > 100 µM (inactive)
GI50 (OVCAR-3): > 100 µM (inactive)
GI50 (OVCAR-5): > 100 µM (inactive)
GI50 (OVCAR-8): > 100 µM (inactive)
GI50 (PC-3): > 100 µM (inactive)
GI50 (RPMI-8226): > 100 µM (inactive)
GI50 (RXF 393): > 100 µM (inactive)
GI50 (SF-268): > 100 µM (inactive)
GI50 (SF-295): > 100 µM (inactive)
GI50 (SF-539): > 100 µM (inactive)
GI50 (SK-MEL-28): > 100 µM (inactive)
GI50 (SK-MEL-2): > 100 µM (inactive)
GI50 (SK-MEL-5): > 100 µM (inactive)
GI50 (SK-OV-3): > 100 µM (inactive)
GI50 (SN12C): > 100 µM (inactive)
GI50 (SNB-19): > 100 µM (inactive)
GI50 (SNB-75): > 100 µM (inactive)
GI50 (SR): > 100 µM (inactive)
GI50 (SW-620): > 100 µM (inactive)
GI50 (T47D): > 100 µM (inactive)
GI50 (TK-10): > 100 µM (inactive)
GI50 (U-251): > 100 µM (inactive)
GI50 (UACC-257): > 100 µM (inactive)
GI50 (UACC-62): > 100 µM (inactive)
GI50 (UO-31): 93.8 µM (inactive)

COc1ccc(N2C(=O)C(C)SC2c2cc3cc(Br)ccc3nc2Cl)cc1 (stereo not drawn)
GI50 (786-0): 45.8 µM (inactive)
GI50 (A498): 46.8 µM (inactive)
GI50 (A549): 12.4 µM (inactive)
GI50 (ACHN): 48.8 µM (inactive)
GI50 (BT-549): 24.9 µM (inactive)
GI50 (CAKI-1): 35.1 µM (inactive)
GI50 (CCRF-CEM): 26.6 µM (inactive)
GI50 (COLO 205): 35.5 µM (inactive)
GI50 (DU-145): 57.3 µM (inactive)
GI50 (EKVX): 21.6 µM (inactive)
GI50 (HCC 2998): 33.3 µM (inactive)
GI50 (HCT-116): 37.8 µM (inactive)
GI50 (HCT-15): 32.9 µM
GI50 (HL-60): 24.8 µM (inactive)
GI50 (HOP-62): 36.2 µM (inactive)
GI50 (HOP-92): 22.9 µM (inactive)
GI50 (HT-29): 32.4 µM (inactive)
GI50 (Hs-578T): 38.5 µM (inactive)
GI50 (IGROV-1): 7.93 µM (inactive)
GI50 (K562): 31.3 µM (inactive)
GI50 (KM12): 30.8 µM (inactive)
GI50 (LOX IMVI): 33 µM (inactive)
GI50 (M14): 44.4 µM (inactive)
GI50 (MCF7): 33.2 µM (inactive)
GI50 (MDA-MB-231): 31.6 µM (inactive)
GI50 (MDA-MB-435): 19.7 µM (inactive)
GI50 (MDA-N): 28.5 µM (inactive)
GI50 (MOLT-4): 20.9 µM (inactive)
GI50 (Malme-3M): 82.4 µM (inactive)
GI50 (NCI-H226): 55.3 µM (inactive)
GI50 (NCI-H23): 33.6 µM (inactive)
GI50 (NCI-H460): 30.9 µM (inactive)
GI50 (NCI-H522): 21.3 µM (inactive)
GI50 (NCI/ADR-RES): 24.3 µM (inactive)
GI50 (OVCAR-3): 34.9 µM (inactive)
GI50 (OVCAR-4): 27.8 µM (inactive)
GI50 (OVCAR-5): 57.9 µM (inactive)
GI50 (OVCAR-8): 37.5 µM (inactive)
GI50 (PC-3): 25.4 µM (inactive)
GI50 (RPMI-8226): 32.7 µM (inactive)
GI50 (RXF 393): 28.8 µM (inactive)
GI50 (SF-268): 38.3 µM (inactive)
GI50 (SF-295): 33.1 µM (inactive)
GI50 (SF-539): 27.4 µM (inactive)
GI50 (SK-MEL-28): 38.1 µM (inactive)
GI50 (SK-MEL-2): 19.7 µM (inactive)
GI50 (SK-MEL-5): 36.1 µM (inactive)
GI50 (SK-OV-3): 59.8 µM (inactive)
GI50 (SN12C): 35.2 µM (inactive)
GI50 (SNB-19): 25.6 µM (inactive)
GI50 (SNB-75): 91 µM (inactive)
GI50 (SR): 18.1 µM (inactive)
GI50 (SW-620): 30.4 µM (inactive)
GI50 (T47D): 34.3 µM (inactive)
GI50 (TK-10): 38.6 µM (inactive)
GI50 (UACC-257): 30.7 µM (inactive)
GI50 (UACC-62): 26.2 µM (inactive)
GI50 (UO-31): 33.6 µM (inactive)

CN(C)c1ccc(/C=C(/NC(=O)c2ccccc2)C(=O)Nc2ccccc2C(=O)O)cc1
GI50 (786-0): > 100 µM (inactive)
GI50 (A498): 57 µM (inactive)
GI50 (A549): > 100 µM (inactive)
GI50 (ACHN): > 100 µM (inactive)
GI50 (BT-549): > 100 µM (inactive)
GI50 (CAKI-1): > 100 µM (inactive)
GI50 (CCRF-CEM): > 100 µM (inactive)
GI50 (COLO 205): > 100 µM (inactive)
GI50 (DU-145): > 100 µM (inactive)
GI50 (EKVX): > 100 µM (inactive)
GI50 (HCC 2998): > 100 µM (inactive)
GI50 (HCT-116): > 100 µM (inactive)
GI50 (HCT-15): > 100 µM
GI50 (HL-60): > 100 µM (inactive)
GI50 (HOP-62): > 100 µM (inactive)
GI50 (HOP-92): > 100 µM (inactive)
GI50 (HT-29): > 100 µM (inactive)
GI50 (Hs-578T): > 100 µM (inactive)
GI50 (IGROV-1): > 100 µM (inactive)
GI50 (K562): > 100 µM (inactive)
GI50 (KM12): > 100 µM (inactive)
GI50 (LOX IMVI): > 100 µM (inactive)
GI50 (M14): > 100 µM (inactive)
GI50 (MCF7): > 100 µM (inactive)
GI50 (MDA-MB-231): > 100 µM (inactive)
GI50 (MDA-MB-435): > 100 µM (inactive)
GI50 (MDA-N): > 100 µM (inactive)
GI50 (MOLT-4): > 100 µM (inactive)
GI50 (Malme-3M): > 100 µM (inactive)
GI50 (NCI-H226): > 100 µM (inactive)
GI50 (NCI-H23): > 100 µM (inactive)
GI50 (NCI-H460): > 100 µM (inactive)
GI50 (NCI-H522): > 100 µM (inactive)
GI50 (NCI/ADR-RES): > 100 µM (inactive)
GI50 (OVCAR-3): > 100 µM (inactive)
GI50 (OVCAR-5): > 100 µM (inactive)
GI50 (OVCAR-8): > 100 µM (inactive)
GI50 (PC-3): > 100 µM (inactive)
GI50 (RPMI-8226): > 100 µM (inactive)
GI50 (RXF 393): > 100 µM (inactive)
GI50 (SF-268): > 100 µM (inactive)
GI50 (SF-295): > 100 µM (inactive)
GI50 (SF-539): > 100 µM (inactive)
GI50 (SK-MEL-28): > 100 µM (inactive)
GI50 (SK-MEL-2): > 100 µM (inactive)
GI50 (SK-MEL-5): > 100 µM (inactive)
GI50 (SK-OV-3): > 100 µM (inactive)
GI50 (SN12C): > 100 µM (inactive)
GI50 (SNB-19): > 100 µM (inactive)
GI50 (SNB-75): > 100 µM (inactive)
GI50 (SR): > 100 µM (inactive)
GI50 (SW-620): > 100 µM (inactive)
GI50 (T47D): > 100 µM (inactive)
GI50 (U-251): > 100 µM (inactive)
GI50 (UACC-257): > 100 µM (inactive)
GI50 (UACC-62): > 100 µM (inactive)
GI50 (UO-31): > 100 µM (inactive)
